# From patent US8134015B2, “Compound inhibiting in vivo phosphorous transport and medicine containing the same” (Kyowa Hakko Kirin Co., Ltd., priority 2003, dated 2012)
# Target: T1, rat NaPi-2b (Rattus norvegicus, UniProt Q9JJ09)
# T1 construct: expressed in transfected cells; host or cells: Xenopus oocytes injected with cRNA
# T1 sequence (Q9JJ09 1-695): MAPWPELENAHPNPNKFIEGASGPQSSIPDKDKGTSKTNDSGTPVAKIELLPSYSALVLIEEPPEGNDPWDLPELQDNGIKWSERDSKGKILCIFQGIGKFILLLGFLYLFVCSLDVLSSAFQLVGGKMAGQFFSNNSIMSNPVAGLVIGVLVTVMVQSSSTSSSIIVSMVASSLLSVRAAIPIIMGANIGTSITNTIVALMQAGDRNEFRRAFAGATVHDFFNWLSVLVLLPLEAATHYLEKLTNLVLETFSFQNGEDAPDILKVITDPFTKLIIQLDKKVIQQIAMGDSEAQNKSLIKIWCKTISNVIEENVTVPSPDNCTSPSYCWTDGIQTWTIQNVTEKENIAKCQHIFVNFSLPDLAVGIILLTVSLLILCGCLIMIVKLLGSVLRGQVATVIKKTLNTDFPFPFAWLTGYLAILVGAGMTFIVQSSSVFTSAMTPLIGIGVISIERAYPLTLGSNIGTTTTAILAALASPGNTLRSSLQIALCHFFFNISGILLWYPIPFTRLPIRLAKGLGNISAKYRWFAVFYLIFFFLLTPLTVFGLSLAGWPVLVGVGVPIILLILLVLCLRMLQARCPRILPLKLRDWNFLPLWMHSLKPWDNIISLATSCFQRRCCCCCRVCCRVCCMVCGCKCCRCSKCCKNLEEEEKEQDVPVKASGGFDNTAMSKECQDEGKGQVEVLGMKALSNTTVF
# Test: Sodium-dependent phosphate uptake of Xenopus oocytes which expressed NaPi-2b (32P)
# Format: cell-based
# Details: Xenopus oocytes expressing rat NaPi-2b, 32P radioactive phosphorus; read-out: IC50 (phosphate uptake inhibitory activity)
# Summary of the method: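 Inhibition at 300 μM and 100 μM was read off one inhibition curve of 32P phosphate uptake. Uptake was measured in Xenopus oocytes cultured 2 days after injection of cRNA for cloned rat NaPi-2b.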
row,Structure (SMILES),IC50 [µM]
1,"O=C(Nc1ccc(Cl)cc1C(=O)N/N=C/c1cccc(F)c1)c1cccc(CSCCS(=O)(=O)O)c1 [Compound 691, 2-{3-[4-Chloro-2-(3-fluoro-benzylidene-hydrazinocarbonyl)-phenylcarbamoyl]-benzylsulfanyl}-ethanesulfonic acid]",97
2,"Cc1cccc(/C=N/NC(=O)c2cc(Cl)ccc2NC(=O)c2cccc(CSCCS(=O)(=O)O)c2)c1 [Compound 692, 2-{3-[4-Chloro-2-(3-methyl-benzylidene-hydrazinocarbonyl)-phenylcarbamoyl]-benzylsulfanyl}-ethanesulfonic acid]",99.4
3,"Cc1ccc(/C=N/NC(=O)c2cc(Cl)ccc2NC(=O)c2cccc(CSCCS(=O)(=O)O)c2)cc1 [Compound 693, 2-{3-[4-Chloro-2-(4-methyl-benzylidene-hydrazinocarbonyl)-phenylcarbamoyl]-benzylsulfanyl}-ethanesulfonic acid]",70.2
4,"Cc1ccc(/C=N/NC(=O)c2cc(Cl)ccc2NC(=O)c2cccc(CSCCS(=O)(=O)O)c2)cc1C [Compound 694, 2-{3-[4-Chloro-2-(3,4-dimethyl-benzylidene-hydrazinocarbonyl)-phenylcarbamoyl]-benzylsulfanyl}-ethanesulfonic acid]",38.8
5,"O=c1c2cc(Br)ccc2nc(-c2cccc(CSCCO)c2)n1/N=C/c1ccc(F)cc1 [Compound 695, 6-Bromo-3-[(4-fluoro-benzylidene-)-amino]-2-[3-(2-hydroxy-ethylsulfanylmethyl)-phenyl]-3H-quinazolin-4-one]",6.76
6,"Cc1ccc(/C=N/n2c(-c3cccc(CSCCO)c3)nc3ccc(Br)cc3c2=O)cc1 [Compound 696, 6-Bromo-2-[3-(2-hydroxy-ethylsulfanylmethyl)-phenyl]-3-[(4-methyl-benzylidene-)-amino]-3H-quinazolin-4-one]",4.47
7,"Cc1ccc(/C=N/n2c(-c3cccc(CSCCO)c3)nc3ccc(Br)cc3c2=O)cc1C [Compound 697, 6-Bromo-3-[(3,4-dimethyl-benzylidene-)-amino]-2-[3-(2-hydroxy-ethylsulfanylmethyl)-phenyl]-3H-quinazolin-4-one]",< 3
8,"O=c1c2cc(Br)ccc2nc(-c2cccc(CSCCO)c2)n1/N=C/c1ccc(Cl)c(C(F)(F)F)c1 [Compound 698, 6-Bromo-3-[(4-chloro-3-trifluoromethyl-benzylidene-)-amino]-2-[3-(2-hydroxy-ethylsulfanylmethyl)-phenyl]-3H-quinazolin-4-one]",< 3

# Same assay, conditions: phosphate uptake, oocytes expressing rat NaPi-2b; 300 μM, determined from inhibition curve
row,Structure (SMILES),inhibition at 300 µM [%]
1,"Cc1cccc(/C=N/NC(=O)c2cc(Cl)ccc2NC(=O)c2cccc(CSCc3ccco3)c2)c1 [Compound 699, N-[4-Chloro-2-(3-methyl-benzylidene-hydrazinocarbonyl)-phenyl]-3-(furan-2-ylmethylsulfanylmethyl)-benzamide]",58.4
2,"O=C(Nc1ccc(Cl)cc1C(=O)N/N=C/c1ccc(Cl)c(C(F)(F)F)c1)c1cccc(CSCc2ccco2)c1 [Compound 700, N-[4-Chloro-2-(4-chloro-3-trifluoromethyl-benzylidene-hydrazinocarbonyl)-phenyl]-3-(furan-2-ylmethylsulfanylmethyl)-benzamide]",40.3
3,"CN(CCCN(C)Cc1cccc(C(=O)Nc2ccc(Cl)cc2C(=O)N/N=C/c2ccc(F)cc2)c1)Cc1cccc(C(=O)Nc2ccc(Cl)cc2C(=O)N/N=C/c2ccc(F)cc2)c1 [Compound 701, N1-[4-Chloro-2-({2-[(E)-1-(4-fluorophenyl)methylidene]-hydrazino}carbonyl}phenyl}-3-{[{3-[(3-{[4-chloro-2-([2-[(E)-1-(4-fluorophenyl)methylidene]hydrazino}carbonyl}anilino}carbonyl}benzyl}-(methyl)amino)propyl)(methyl)amino]methyl]benzamide]",54
